Several values for one entry are separate records, joined by “and”; a condition that tells them apart may be missing. Equal entries are not always repeated. Where two headings read alike, the source gives them in different places.
Key:
HbS = target: T1, HbS (Homo sapiens, UniProt P68871+P69905, E7V); experiment: Whole blood assay, oxygen equilibrium curves of whole blood from sickle cell patients; type: cell-based; conditions: hematocrit 20%, compound at 1000 μM
T1 construct: Oxygen Equilibrium Curves (OEC) of whole blood before and after treatment; endogenous in cells; host or cells: whole blood (red blood cells) of homozygous sickle cell patients
Protocol: Oxygen Equilibrium Curves (OEC) of whole blood before and after treatment with different concentrations of substituted benzaldehyde compounds were performed as follows using a HEMOX analyzer (TCS Scientific, New Hope, Pa.). Blood samples from homozygous sickle cell patients were obtained though the Hemoglobinopathy Center at Children's Hospital Oakland Research Institute (CHORI) with Institutional Review Board approval. The hematocrit was adjusted to 20% using autologous plasma and the blood samples were incubated for 1 hour at 37° C. in absence or presence of compounds. 100 μl of these samples were added to 5 mL of Hemox buffer (30 mM TES, 130 mM NaCl, 5 mM KCl, pH=7.4) at 37° C. and then transferred to the Hemox sample chamber. The samples were saturated with oxygen by flushing with compressed air for 10 minutes. The samples were then flushed with pure nitrogen and the respective absorbances of oxy- and deoxy-Hb are recorded as a function of the solution pO2. The oxygen equilibrium data were then fitted to the Hill Model to obtain values for p50. The deoxygenation curves for both whole blood alone (control) and whole blood in the presence of the compound were collected with the TCS software.
Table 5 below lists the delta p50% values where + indicates a delta p50% of between 0 and 29, ++ indicates a delta p50% of between 30 and 50, and +++ indicates a delta p50% of 50 or greater. The compounds in Table 2 were tested at 1000 μM.

HbS/A = target: T2, HbS/A (Homo sapiens, UniProt P68871+P69905, E7V); experiment: Relaxed-to-tense transition assay (R/T assay); type: biochemical; conditions: compound at 30 μm; 3 μM HbS/A
T2 construct: A mixture of HbS/A was purified from blood; from tissue; host or cells: blood of homozygous sickle cell patients
Protocol: A relaxed-to-tense transition assay (“R/T assay”) was used to determine the ability of substituted benzaldehyde compounds to maintain the high-oxygen affinity relaxed (R) state of hemoglobin under deoxygenated conditions. This ability can be expressed as a “delta R” value (i.e., the change in the time-period of the R state after hemoglobin is treated with a compound, as compared to the period without treatment with the compound). Delta R is the % R to remaining after the compounds treatment compared with no treatment (e.g. if R % without treatment is 8% while with treatment with a target compound is 48% R at 30 μM, then % R is 40% for that compound.
A mixture of HbS/A was purified from blood obtained from homozygous sickle cell patients though the Hemoglobinopathy Center at Children's Hospital Oakland Research Institute (CHORI) with Institutional Review Board approval. HbS/A (at a final concentration of 3 μM) was incubated for 1 hr at 37° C. in presence or absence of compounds in […] potassium phosphate buffer, pH=7.4 and 30 μM 2, 3 diphosphoglycerate (DPG) in 96 well plates in a final volume of 160 μl. Compounds were added at different concentrations (3 μM to 100 μM final concentrations). Plates were covered with a Mylar film. After incubation was completed the Mylar cover was removed and the plates were placed in a Spectrostar Nano plate reader previously heated at 37° C. Five minutes later, N2 (flow rate=20 L/min) was flowed through the spectrophotometer. Spectroscopic measurements (300 nm to 700 nm) were taken every 5 min for 2 hours. Data analysis was performed by using linear regression from the data retrieved for all wavelengths.
Table 4 below lists the delta R values where + indicates a delta R of between 0 and 30, ++ indicates a delta R of between 30 and 50, and +++ indicates a delta R of 50 or greater. Unless noted otherwise, the compounds in Table 2 were tested at 9 μM.

[1] = Pharmacokinetic I.V. study in rat; type: in vivo, Sprague Dawley rats; conditions: 7.8 mpk IV; for Vd: read-out: Vss; for half-life: read-out: t½ beta
Protocol: (§1) Sprague Dawley rats were treated with 7.8 mg/Kg of Compound 43 dissolved in 10% DMA:[…]:16% ca vitron. At specified time points 10 uL of whole blood/plasma was removed from rats and treated with 490 ul pH 3 buffer+500 uL ACN/IS, then shaken for 1 hour, centrifuged for 10 minutes at […] at 4 C. The supernatant was transferred to a filter plate and centrifuged at 2000 rpm for 1 minute at 4 C. The samples were then analyzed by LC-MS/MS monitoring parent aldehyde.

[2] = Pharmacokinetic oral study in rat; type: in vivo, SD Rats; conditions: for AUClast ratio / Cmax ratio: PO, 100 mg/kg vs 44 mg/kg; for Cmax / Tmax: Sprague-Dawley
Protocol: as §1
SD Rats were treated by gavage with 44 mg/kg and 100 mg/kg dissolved in 10% DMA:90% PEG. At specified time points blood was taken and worked up as described above in the IV Study.

[3] = HCl salt, 0 min, animals A, B, C
[4] = HCl salt, 5 min, animals A, B, C, 7.8 mg/kg
[5] = HCl salt, 15 min, animals A, B, C, 7.8 mg/kg
[6] = HCl salt, 30 min, animals A, B, C, 7.8 mg/kg
[7] = HCl salt, 60 min, animals A, B, C, 7.8 mg/kg
[8] = HCl salt, 120 min, animals A, B, C, 7.8 mg/kg
[9] = HCl salt, 240 min, animals A, B, C, 7.8 mg/kg
[10] = HCl salt, 1440 min, animals A, B, C, 7.8 mg/kg
[11] = Sprague-Dawley, 7.8 mg/kg, Plasma
[12] = Sprague-Dawley, whole blood, 7.8 mg/kg, Blood
[13] = whole blood, PO 44 mg/kg, Blood
[14] = whole blood, PO 100 mg/kg, Blood

For `CC(C)n1nccc1-c1ncccc1COc1cccc(O)c1C=O` [Compound 43, 2-hydroxy-6-((2-(1-isopropyl-1H-pyrazol-5-yl)pyridin-3-yl)methoxy)benzaldehyde], the “delta p50%” value (HbS) was “+++ (+++ indicates a delta p50% of 50 or greater)”, the “delta R (%)” value (HbS/A) was “+++ (30 μm) (+++ indicates a delta R of 50 or greater)” and the AUClast ([1]; Blood) was 215846.3 µmol·min/L. For the same compound, the blood conc [1, 3] was “BLLOQ”, the plasma conc [1, 3] was “BLLOQ” and the blood conc [1, 4] was 246 µM and 281 µM. The plasma conc [1, 4] was 8.68 µM and 7.44 µM, the blood conc [1, 5] was 341 µM and 285 µM and the plasma conc [1, 5] was 8.42 µM and 7.16 µM. For the same compound, the blood conc [1, 6] was 333 µM and 292 µM, the plasma conc [1, 6] was 7.1 µM and the blood conc [1, 7] was 203 µM and 285 µM. The plasma conc [1, 7] was 7.52 µM and 7.22 µM, the blood conc [1, 8] was 274 µM and 280 µM and the plasma conc [1, 8] was 6.02 µM and 5.22 µM. The blood conc [1, 9] was 225 µM and 259 µM, the plasma conc [1, 9] was 5.24 µM and 5.88 µM and the plasma conc ([1]; HCl salt, 480 min, animals A, B, C, 7.8 mg/kg) was 2.66 µM and 3.15 µM. The blood conc [1, 10] was 85 µM and 70.8 µM, the plasma conc [1, 10] was 1.38 µM and 1.51 µM and the AUClast ([1]; Plasma) was 4114.8 µmol·min/L. For the same compound, the clearance [1, 11] was 4.45 mL/min/kg, the Vd [1, 11] was 4.11 L/kg and the half-life [1, 11] was 10.3 h. The concentration at 5 min ([1]; Sprague-Dawley, plasma, iv, 7.8 mg/kg, HCl salt, 5 min, animals A, B, C, read-out: plasma conc) was 7.56 µM, the concentration at 15 min ([1]; Sprague-Dawley, plasma, iv, 7.8 mg/kg, HCl salt, 15 min, animals A, B, C, read-out: plasma conc) was 8.38 µM and the concentration at 30 min ([1]; Sprague-Dawley, plasma, iv, 7.8 mg/kg, HCl salt, 30 min, animals A, B, C, read-out: plasma conc) was 8.66 µM. The concentration at 60 min ([1]; Sprague-Dawley, plasma, iv, 7.8 mg/kg, HCl salt, 60 min, animals A, B, C, read-out: plasma conc) was 6.12 µM, the concentration at 120 min ([1]; Sprague-Dawley, plasma, iv, 7.8 mg/kg, HCl salt, 120 min, animals A, B, C, read-out: plasma conc) was 3.92 µM and the concentration at 240 min ([1]; Sprague-Dawley, plasma, iv, 7.8 mg/kg, HCl salt, 240 min, animals A, B, C, read-out: plasma conc) was 3.72 µM. The concentration at 480 min ([1]; Sprague-Dawley, plasma, iv, 7.8 mg/kg, HCl salt, 480 min, animals A, B, C, read-out: plasma conc) was 2.06 µM, the concentration at 1440 min ([1]; Sprague-Dawley, plasma, iv, 7.8 mg/kg, HCl salt, 1440 min, animals A, B, C, read-out: plasma conc) was 1.07 µM and the clearance [1, 12] was 0.08 mL/min/kg. The Vd [1, 12] was 0.09 L/kg, the half-life [1, 12] was 12.5 h and the concentration at 5 min ([1]; Sprague-Dawley, whole blood, iv, 7.8 mg/kg, HCl salt, 5 min, animals A, B, C, read-out: blood conc) was 259 µM. It also gave a concentration at 15 min ([1]; Sprague-Dawley, whole blood, iv, 7.8 mg/kg, HCl salt, 15 min, animals A, B, C, read-out: blood conc) of 287 µM, a concentration at 30 min ([1]; Sprague-Dawley, whole blood, iv, 7.8 mg/kg, HCl salt, 30 min, animals A, B, C, read-out: blood conc) of 283 µM and a concentration at 60 min ([1]; Sprague-Dawley, whole blood, iv, 7.8 mg/kg, HCl salt, 60 min, animals A, B, C, read-out: blood conc) of 256 µM. For the same compound, the concentration at 120 min ([1]; Sprague-Dawley, whole blood, iv, 7.8 mg/kg, HCl salt, 120 min, animals A, B, C, read-out: blood conc) was 263 µM, the concentration at 240 min ([1]; Sprague-Dawley, whole blood, iv, 7.8 mg/kg, HCl salt, 240 min, animals A, B, C, read-out: blood conc) was 248 µM and the concentration at 1440 min ([1]; Sprague-Dawley, whole blood, iv, 7.8 mg/kg, HCl salt, 1440 min, animals A, B, C, read-out: blood conc) was 81.1 µM. The AUClast ([2]; PO 44 mg/kg, Blood) was 395638.27 µmol·min/L, the AUClast ([2]; PO 44 mg/kg, Plasma) was 12517.54 µmol·min/L and the AUClast ([2]; PO 100 mg/kg, Blood) was 1384101.11 µmol·min/L. For the same compound, the AUClast ([2]; PO 100 mg/kg, Plasma) was 52836.17 µmol·min/L, the AUClast ratio ([2]; Blood) was 3.50 and the Cmax ratio ([2]; Blood) was 2.88. It also gave an AUClast ratio ([2]; Plasma) of 4.22, a Cmax ratio ([2]; Plasma) of 3.01 and a Cmax ([2]; PO 44 mg/kg, Plasma) of 14.8 µM. The Tmax ([2]; PO 44 mg/kg, Plasma) was 3.33 h, the Cmax ([2]; PO 100 mg/kg, Plasma) was 44.5 µM and the Tmax ([2]; PO 100 mg/kg, Plasma) was 11.3 h. It also gave a Cmax [2, 13] of 381 µM, a Tmax [2, 13] of 5.33 h and a Cmax [2, 14] of 1100 µM. For the same compound, the Tmax [2, 14] was 12 h.
